In US8765730B2 (Hoffmann-La Roche Inc, priority 2010, dated 2014):
Where a name gives a salt, the structure may show the parent alone. Values belong to the compound of their own block, whether it stands above or below them.

Target: T1, human GPBAR1 receptor (Homo sapiens, UniProt Q8TDU6)
T1 construct: expressed in transfected cells
T1 sequence (Q8TDU6 1-330): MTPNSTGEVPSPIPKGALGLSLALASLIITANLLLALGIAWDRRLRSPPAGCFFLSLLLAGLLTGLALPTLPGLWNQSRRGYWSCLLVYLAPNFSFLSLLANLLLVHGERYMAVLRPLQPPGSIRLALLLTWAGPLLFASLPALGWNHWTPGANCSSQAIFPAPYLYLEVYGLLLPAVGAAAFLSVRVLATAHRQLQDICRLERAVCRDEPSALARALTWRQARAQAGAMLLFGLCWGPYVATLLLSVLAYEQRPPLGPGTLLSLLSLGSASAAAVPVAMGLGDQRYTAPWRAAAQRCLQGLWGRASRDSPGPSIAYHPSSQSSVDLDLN
Assay: functional cAMP assay in CHO-dhfr(minus) cells expressing human GPBAR1 receptors
Assay type: cell-based
Conditions: human EC50, functional cAMP assay, 30 min at 30° C.
Outline: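 Agonist cAMP read-out: stable GPBAR1 CHO-dhfr− clone, 30 min compound exposure at 30° C following 30 min IBMX (1 mM) preincubation in Krebs Ringer bicarbonate. Time-resolved energy-transfer detection gives EC50; parental CHO cells serve as counter-screen.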

SMILES: Cn1cc(/C(CC(c2ccc(Br)cc2)c2ccccc2Cl)=N/O)ccc1=O (stereo not drawn) [Example 203, 5-{3-(4-Bromo-phenyl)-3-(2-chloro-phenyl)-1-[(E)-hydroxyimino]-propyl}-1-methyl-1H-pyridin-2-one]
EC50: 0.012 µM

SMILES: COC(=O)CNC(=O)c1ccc(-c2ccc(C(C/C(=N\O)c3ccc(=O)n(C)c3)c3ccc(F)cc3C)cc2)cc1 (stereo not drawn) [Example 257, ({4′-[1-(4-Fluoro-2-methyl-phenyl)-3-[(E)-hydroxyimino]-3-(1-methyl-6-oxo-1,6-dihydro-pyridin-3-yl)-propyl]-biphenyl-4-carbonyl}-amino)-acetic acid methyl ester]
EC50: 0.02 µM

SMILES: Cc1ccccc1C(CC(=NO)c1cc(Cl)ncc1F)c1ccc(Br)cc1 (racemic) [Example 127, 3-(4-Bromo-phenyl)-1-(2-chloro-5-fluoro-pyridin-4-yl)-3-o-tolyl-propan-1-one oxime]
EC50: 0.046 µM

SMILES: Cc1[nH]c2ccccc2c1C(CC(=NO)c1ccncc1)c1ccc(N(C)C)cc1 (racemic) [Example 63, 3-(4-Dimethylamino-phenyl)-3-(2-methyl-1H-indol-3-yl)-1-pyridin-4-yl-propan-1-one oxime]
EC50: 2.73 µM

SMILES: Cc1cccnc1C(C/C(=N\O)c1ccncc1)c1ccc(N(C)C)cc1 (stereo not drawn) [Example 65, (E)-3-(4-Dimethylamino-phenyl)-3-(3-methyl-pyridin-2-yl)-1-pyridin-4-yl-propan-1-one oxime]
EC50: 0.039 µM

SMILES: Cc1cc(C(CC(c2ccccc2)c2ccccc2)=NO)ccn1 (racemic) [Example 57, 1-(2-Methyl-pyridin-4-yl)-3,3-diphenyl-propan-1-one oxime]
EC50: 0.073 µM

SMILES: O/N=C(\CC(c1ccccc1)c1ccccc1)c1ccncc1 [Example 14, (E)-3,3-Diphenyl-1-pyridin-4-yl-propan-1-one oxime]
EC50: 0.052 µM

SMILES: Cc1ccccc1C(CC(=NO)c1ccncc1)c1ccc(C(=O)O)cc1 (racemic) [Example 70, 4-{3-[Hydroxyimino]-3-pyridin-4-yl-1-o-tolyl-propyl}-benzoic acid]
EC50: 2.73 µM

SMILES: Cc1cc(/C(C[C@H](c2ccc(-c3cncnc3)cc2)c2ccccc2C)=N/O)ccn1 [Example 143, (E,R)-1-(2-Methyl-pyridin-4-yl)-3-(4-pyrimidin-5-yl-phenyl)-3-o-tolyl-propan-1-one oxime]
EC50: 0.001 µM

SMILES: Cc1ccccc1C(C/C(=N\O)c1ccc(=O)n(C)c1)c1ccc(C(=O)N(C)CC(=O)O)cc1 (stereo not drawn) [Example 211, ({4-[3-[(E)-Hydroxyimino]-3-(1-methyl-6-oxo-1,6-dihydro-pyridin-3-yl)-1-o-tolyl-propyl]-benzoyl}-methyl-amino)-acetic acid]
EC50: 5.98 µM

SMILES: O/N=C(\CC(c1ccccc1)c1cccc(Br)c1)c1ccncc1 (stereo not drawn) [Example 12, (E)-3-(3-Bromo-phenyl)-3-phenyl-1-pyridin-4-yl-propan-1-one oxime]
EC50: 0.092 µM

SMILES: Cc1ccccc1C(CC(=NO)c1ccncc1)c1ccc(N2CCCCC2)cc1 (racemic) [Example 40, 3-(4-Piperidin-1-yl-phenyl)-1-pyridin-4-yl-3-o-tolyl-propan-1-one oxime]
EC50: 0.034 µM

SMILES: Cc1cc(/C(C[C@H](c2ccc(NCC(CCl)C(=O)O)cc2)c2ccccc2C)=N/O)ccn1 (stereo partly drawn) [Example 280, 2-Chloromethyl-3-{4-[(R)-3-[(E)-hydroxyimino]-3-(2-methyl-pyridin-4-yl)-1-o-tolyl-propyl]-phenylamino}-propionic acid]
EC50: 0.019 µM

SMILES: Cc1cc(F)ccc1C(C/C(=N\O)c1ccc(=O)n(C)c1)c1ccc(-c2ccc(N)cc2)cc1 (stereo not drawn) [Example 259, 5-{3-(4′-Amino-biphenyl-4-yl)-3-(4-fluoro-2-methyl-phenyl)-1-[(E)-hydroxyimino]-propyl}-1-methyl-1H-pyridin-2-one]
EC50: 0.05 µM

SMILES: Cc1ccccc1C(Cc1ccc(Br)cc1)/C(=N\O)c1ccncc1 (stereo not drawn) [Example 44, (E)-3-(4-bromo-phenyl)-1-pyridin-4-yl-2-o-tolyl-propan-1-one oxime]
EC50: 0.421 µM

SMILES: Cc1ccccc1C(C/C(=N\O)c1ccc(=O)n(C)c1)c1ccc(C(=O)NC[C@H](C)O)cc1 (stereo partly drawn) [Example 247, 4-((E)-3-(Hydroxyimino)-3-(1-methyl-6-oxo-1,6-dihydropyridin-3-yl)-1-o-tolylpropyl)-N-((S)-2-hydroxypropyl)benzamide]
EC50: 0.22 µM

SMILES: Cc1cc(/C(C[C@@H](c2ccc(C(=O)N(C)C)cc2)c2ccc(Cl)cc2C)=N/O)ccn1 [Example 283, 4-[(S)-1-(4-Chloro-2-methyl-phenyl)-3-[(E)-hydroxyimino]-3-(2-methyl-pyridin-4-yl)-propyl]-N,N-dimethyl-benzamide]
EC50: 0.051 µM

SMILES: Cn1cc(/C(CC(c2ccc(S(C)(=O)=O)cc2)c2ccccc2Cl)=N/O)ccc1=O (stereo not drawn) [Example 249, (E)-5-(3-(2-Chlorophenyl)-1-(hydroxyimino)-3-(4-(methylsulfonyl)phenyl)propyl)-1-methylpyridin-2(1H)-one]
EC50: 0.03 µM

More lines, now with the values ahead:

EC50: 0.127 µM
SMILES: Cc1cc(/C(C[C@H](c2ccc(C3CNC3)cc2)c2ccccc2C)=N/O)ccn1 [Example 482, (R,E)-3-(4-(Azetidin-3-yl)phenyl)-1-(2-methylpyridin-4-yl)-3-o-tolylpropan-1-one oxime]

EC50: 0.152 µM
SMILES: Cn1cc(/C(C[C@@H](c2ccc(-c3ccc(C(=O)O)c(F)c3)cc2)c2ccc(Cl)cc2F)=N/O)ccc1=O (single isomer, unassigned) [Example 464, 4′-[(+)-1-(4-Chloro-2-fluoro-phenyl)-3-[(E)-hydroxyimino]-3-(1-methyl-6-oxo-1,6-dihydro-pyridin-3-yl)-propyl]-3-fluoro-biphenyl-4-carboxylic acid]

EC50: 0.014 µM
SMILES: Cc1cc(Cl)ccc1C(C/C(=N\O)c1ccc(=O)n(C)c1)c1ccc(CO)cc1 (stereo not drawn) [Example 337, (E)-5-(3-(4-Chloro-2-methylphenyl)-1-(hydroxyimino)-3-(4-(hydroxymethyl)phenyl)-propyl)-1-methylpyridin-2(1H)-one]

EC50: 0.021 µM
SMILES: Cc1cc(/C(C[C@H](c2ccc(-c3ccc(C(=O)O)cc3)cc2)c2ccccc2C)=N/O)cc(C)n1 [Example 294, 4′-{(R)-3-(2,6-Dimethyl-pyridin-4-yl)-3-[(E)-hydroxyimino]-1-o-tolyl-propyl}-biphenyl-4-carboxylic acid]

EC50: 0.024 µM
SMILES: Cc1cc(/C(C[C@H](c2ccc(N3CC4(CSC4)C3)cc2)c2ccccc2C)=N/O)ccn1 [Example 371, (3R,E)-3-(4-(2-thia-6-azaspiro[3.3]heptan-6-yl)phenyl)-1-(2-methylpyridin-4-yl)-3-o-tolylpropan-1-one oxime]

EC50: 0.01 µM
SMILES: Cn1cc(/C(CC(c2ccc(CO)cc2)c2ccc(Cl)cc2F)=N/O)ccc1=O (stereo not drawn) [Example 317, (E)-5-(3-(4-chloro-2-fluorophenyl)-1-(hydroxyimino)-3-(4-(hydroxymethyl)phenyl)propyl)-1-methylpyridin-2(1H)-one]

EC50: 0.004 µM
SMILES: CCOc1ccc([C@@H](C/C(=N\O)c2ccnc(C)c2)c2ccccc2C)cc1 [Example 364, (R)-3-(4-Ethoxy-phenyl)-1-(2-methyl-pyridin-4-yl)-3-o-tolyl-propan-1-one oxime]

EC50: 0.268 µM
SMILES: Cc1ccccc1[C@H](C/C(=N\O)c1ccc(=O)n(C)c1)c1ccc(-c2nnn[nH]2)cc1 [Example 500, (R,E)-5-(3-(4-(1H-Tetrazol-5-yl)phenyl)-1-(hydroxyimino)-3-o-tolylpropyl)-1-methyl-pyridin-2(1H)-one, sodium salt]

EC50: 0.118 µM
SMILES: Cc1ccc(C(C/C(=N\O)c2ccc(=O)n(C)c2)c2ccc(Br)cc2)c(F)c1 (stereo not drawn) [Example 408, (E)-5-(3-(4-bromophenyl)-3-(2-fluoro-4-methylphenyl)-1-(hydroxyimino)propyl)-1-methylpyridin-2(1H)-one]

EC50: 0.014 µM
SMILES: Cc1cc(/C(C[C@H](c2ccc(S(C)(=O)=O)cc2)c2ccccc2C)=N/O)ccn1 [Example 358, (R)-3-(4-Methanesulfonyl-phenyl)-1-(2-methyl-pyridin-4-yl)-3-o-tolyl-propan-1-one oxime]

EC50: 0.137 µM
SMILES: Cc1cc(Cl)ccc1C(C/C(=N\O)c1ccc(=O)n(C)c1)c1ccc(Oc2ccc(Cl)c(C(=O)O)c2)c(F)c1 (stereo not drawn) [Example 326, 2-Chloro-5-{4-[1-(4-chloro-2-methyl-phenyl)-3-[(E)-hydroxyimino]-3-(1-methyl-6-oxo-1,6-dihydro-pyridin-3-yl)-propyl]-2-fluoro-phenoxy}-benzoic acid]

EC50: 1.63 µM
SMILES: Cc1ccccc1C(C/C(=N\O)c1ccc(=O)n(C)c1)c1ccc(C(=O)N[C@@H](CO)C(C)C)cc1 (stereo partly drawn) [Example 305, N—((R)-1-hydroxy-3-methylbutan-2-yl)-4-((E)-3-(hydroxyimino)-3-(1-methyl-6-oxo-1,6-dihydropyridin-3-yl)-1-o-tolylpropyl)benzamide]

EC50: 0.698 µM
SMILES: Cc1cc(/C(=N/O)C(C)[C@H](c2ccc(Br)cc2)c2ccc(Cl)cc2C)ccn1 (stereo partly drawn) [Example 385, (3R,E)-3-(4-bromophenyl)-3-(4-chloro-2-methylphenyl)-2-methyl-1-(2-methylpyridin-4-yl)propan-1-one oxime]

EC50: 0.012 µM
SMILES: Cc1cc(F)ccc1[C@@H](C/C(=N\O)c1ccc(=O)n(C)c1)c1ccc(-c2ccc(S(N)(=O)=O)cc2)cc1 (single isomer, unassigned) [Example 407, (+)-4′-[1-(4-Fluoro-2-methyl-phenyl)-3-[(E)-hydroxyimino]-3-(1-methyl-6-oxo-1,6-dihydro-pyridin-3-yl)-propyl]-biphenyl-4-sulfonic acid amide]

EC50: 0.27 µM
SMILES: COC(=O)c1ccc(-c2ccc(C(C/C(=N\O)c3ccnc(C)c3)c3ccc(Cl)cc3F)cc2)cc1OC (stereo not drawn) [Example 454, 4′-[1-(4-Chloro-2-fluoro-phenyl)-3-[(E)-hydroxyimino]-3-(2-methyl-pyridin-4-yl)-propyl]-3-methoxy-biphenyl-4-carboxylic acid methyl ester]
